One compound from patent US20260159486A1, “BENZO[H]QUINAZOLINE-4-AMINE DERIVATIVES FOR THE TREATMENT OF CANCER” (Redona Therapeutics, Inc., priority 2021, published 2026) can be followed below.

In test [1] the test system is SW480 human colorectal cancer cells. In words: SW480 colorectal cancer mouse xenograft model. The format is in vivo, NOD/SCID mice. As to the method: NOD/SCID mice of circa 23 g of weight were inoculated with 1×10^7 SW480 human colorectal cancer cells in 50% Matrigel™ subcutaneously in a flank. A pair match was performed when tumors reached an average volume of 100-150 mm^3 to distribute animals into treatment group and vehicle control (n=8/group). Tumor volumes (expressed in mm^3) were measured twice weekly using a caliper on days 1, 4, 8, 11, 15, 18, 22 and 23 of the treatment period. (A) The average TVol (±standard error of mean (SEM)) of each treatment group are shown. […] (B) Changes in BW in percentage (expressed in g, ±SEM) on days 1, 4, 8, 11, 15, 18, 22 and 23 of the treatment period. (C) Changes in vehicle- and Example 13-treated TVol expressed in mm^3. TVol ratio of Example 13-treated vs vehicle control (T/C) is indicated.
The efficacy of Example 13 was assessed in a mouse xenograft model. To this end, the SW480 colorectal cancer xenograft model was used, in which the tumor cells were injected subcutaneously into the flanks of immune-deficient NOD/SCID mice (lack functional/mature T and B cells, functional immature macrophages and residual NK cell function). […]
Tumor volumes (expressed in mm^3) were measured in two dimensions using a caliper on days 1, 4, 8, 11, 15, 18, 22 and 23 of the treatment period. […]

The subject of test [2] is phospho-SRSF6 in MDA-MB-468 cells. Briefly: Inhibition of phospho-SRSF6 levels in MDA-MB-468 cells (Western blot). The format is cell-based. The settings on record: Homo sapiens, 2 hours, compared to DMSO control. As to the method:
FIG. 1: FIG. 1 provides a representative Western blot showing reduction of phosphorylated-SRSF6 (P—SRSF6) in MDA-MB 468 cells by compounds of the invention. GAPDH was probed for by Western blotting to control for equal protein loading and for normalization of samples. The numbers below the blots show percent inhibition of the P—SRSF6 signal at 100 nM (A) or 10 nM (B) compared to DMSO control.
Assessment of Inhibition of Phospho-SRSF6 Levels in MDA-MB-468 Cells
MDA-MB-468 cells (ATCC, HTB-132) were cultured in DMEM (BioConcept cat. no. 1-26F03) supplemented with 10% FBS (Sigma cat. no. F9665), […] (Sigma cat. no. S8636), 1% Penicillin-Streptomycin (BioConcept cat. no. 4-01FOO-H). When cells reached a density of 70% o in 6-well plates (TPP cat. no. 92006), they were treated either with the test compound vehicle DMSO, or with experimental compounds at a final concentration of either 10 or 100 nM for 2 hours. Thereafter, the culture medium was removed and cells were collected by scraping in Lysis Buffer (20 mM Tris HCl pH7.5, 150 mM NaCl, 1 mM EGTA, 1 mM EDTA, 1% o Triton and 1% o NP-40) containing protease and phosphatase inhibitors (Halt™ Protease&Phosphatase inhibitor cocktail 100× ThermioScientific cat. no. 1861281) and 1 mM PMSF (Fluka cat. no. 93482). Cleared lysates were stored in Eppendorfftubes at −80° C. until use, and protein concentration in lysates was determined using Pierce 660 nm Protein Assay Reagent (ThermioScientific cat. no. 22660). 20 μg proteins were diluted in 4× Laemmli buffer (Biorad cat. no. 161-0747) containing 10% beta-mercaptoethanol, separated by SDS-PAGE using 10% gels, and then transferred to PVDF membranes (Trans Blot Turbo Transfer Pack BioRad cat. no. 1704156) by Trans-Blot® Turbo™ System semidry blotting methodology (BioRad). Primary antibodies were incubated in TBS-0.1% Tween-20 buffer containing 3% BSA Bovine Albumin Fr.V (Millipore cat. no. 81-053-3) overnight at 4° C. The following primary antibodies were used: Mouse anti-phosphoepitope SR proteins clone 1H4 (Millipore cat. no. MABE50) diluted 1:5000, and rabbit anti-GAPDH clone 14C10 (Cell Signaling cat. no. 2118S) to control for equal protein loading, diluted 1:2000. HRP-conjugated secondary antibodies were incubated one hour at room temperature diluted 1:5000 in TBS-0.1% Tween-20 buffer containing […] nonfat-dried bovine milk (Sigma cat. no. M7409). The following secondary antibodies were used: Goat anti-mouse-HRP (Jackson cat. no. 115-035-146) and goat anti-rabbit-HRP (Jackson cat. no. 111-035-144). Membranes were incubated with ECL Prime Western Blot Detection Reagent (Amersham cat. no. RPN2236) to detect specific signals using Fusion SOLO S device (Vilber Lourmat). Pixel intensity of the phopsho-SRSF6 (MW 55 kDa in reference to markers) and GAPDH (MW 37 kDa) signals in the Western blots were determined using Evolution-Capt image analysis software (v17.01, Vilber Lourmat). DMSO control was used to set the phospho-SRSF6 signal at baseline, phospho-SRSF6 signals for each sample were normalized by the respective GAPDH signals and percent intensity of P—SRSF6 signal at 10 and 100 nM compound compared to DMSO control was calculated (see FIG. 1).

As to `COCCN(C)c1c(O[C@H]2CC[C@H](N)CC2)ccc2c1CC(C)(C)c1c(N)ncnc1-2` [Example 13, 8-(trans-4-aminocyclohexoxy)-N7-(2-methoxyethyl)-N7,5,5-trimethyl-6H-benzo[h]quinazoline-4,7-diamine], the “tumor volumes during the treatment period compared with vehicle-treated” value in test [1] (oral 45 mg/kg BID*BIW, treatment period) was “consistently smaller”. In addition, the “tumor volumes as % of the volume of the vehicle-treated group (T/C)” value in test [1] (study endpoint day 23, oral BID*BIW, 45 mg/kg days 1-10, 50 mg/kg days 11-22, p=0.06) amounted to 61%. Further, the inhibition at 0.01 µM in test [2] (10 nM, read-out: >50% p-SRSF6 reduction at 10 nM) is under 50%. Further, the inhibition at 0.1 µM in test [2] (100 nM, read-out: >50% p-SRSF6 reduction at 100 nM) was over 50%.
